As usually defined, the pKd is the Kd on a negative log10 scale, so that one unit is a factor of ten. In general, inhibition refers to the relative decrease from the control value, in per cent. The pIC50 is the negative decadic logarithm of the IC50, by convention in mol/L. A lower pIC50 goes with a large IC50. Broadly, the pEC50 is −log10 of the EC50, conventionally taken in molar units. Low readings indicate a high EC50, high ones a low EC50.

Experimental findings from ChEMBL document CHEMBL5233220, “A review of currently identified small molecule modulators of microRNA function” (Eur J Med Chem, 2020) are described below.

The structures appear in SMILES notation. pEC50, pIC50, pKd: −log10 of the molar value. Several values for one entry are separate records, joined by “and”; a condition that tells them apart may be missing. Identical values can stand only once. Counter-ions that a name gives are not always drawn.

Assay [1] in a line: Binding affinity to pre-miR-21 (unknown origin) assessed as dissociation constant by microarray assay.
A short description of assay [2]: Inhibition of miR-27a (unknown origin) maturation at 5 uM relative to control.
Assay [3] can be described thus: Binding affinity to pre-miR-21 (unknown origin) assessed as dissociation constant by fluorescence-based assay.
A short description of assay [4]: Binding affinity to pre-miR-21 (unknown origin) at A bulge assessed as dissociation constant by dicer assay.
Assay [5] can be described thus: Binding affinity to pre-miR-21 (unknown origin) assessed as melting temperature by differential scanning fluorimetry analysis. Background: DSF heats the sample and reads unfolding from a dye or from intrinsic fluorescence.
Assay [6] in a line: Binding affinity to miR-96 (unknown origin) assessed as dissociation constant. Set-up: species or system Homo sapiens.
Assay [7] in a line: Inhibition of pre-miR-373 (unknown origin) at 250 uM by FRET assay relative to control.
Assay [8] can be described thus: Inhibition of pre-miR-372 (unknown origin) by FRET assay.
Assay [9] in a line: Inhibition of pre-miR-373 (unknown origin) by FRET assay.
Another assay has as its target Protein argonaute-2 (Homo sapiens, UniProt Q9UKV8). The assay can be described thus: Inhibition of AGO2 (unknown origin).
Assay [10] in a line: Inhibition of pre-miR-21 (unknown origin) by FP assay.
A short description of assay [11]: Inhibition of miR-122 (unknown origin) assessed as relative light unit by luciferase assay.
For the next assay, the target named is T1, Protein lin-28 homolog A (Homo sapiens, UniProt Q9H9Z2).
T1 sequence (Q9H9Z2 whole entry): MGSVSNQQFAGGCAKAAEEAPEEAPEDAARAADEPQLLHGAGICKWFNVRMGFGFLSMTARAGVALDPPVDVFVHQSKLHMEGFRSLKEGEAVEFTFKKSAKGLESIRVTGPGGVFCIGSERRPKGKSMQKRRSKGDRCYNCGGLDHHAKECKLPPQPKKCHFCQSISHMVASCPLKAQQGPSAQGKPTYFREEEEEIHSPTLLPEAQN
Briefly: Inhibition of LIN28A (unknown origin) by FRET assay.

The test system of another assay is BCL1. The assay can be described thus: Inhibition of cell growth in mouse BCL1 cells. The class given is functional, cell-based.
Assay [12] can be described thus: Activation of miR-122 (unknown origin) assessed as relative light unit by luciferase assay. To be noted: filed as activator.

Protein argonaute-2, sequence (Q9UKV8 whole entry): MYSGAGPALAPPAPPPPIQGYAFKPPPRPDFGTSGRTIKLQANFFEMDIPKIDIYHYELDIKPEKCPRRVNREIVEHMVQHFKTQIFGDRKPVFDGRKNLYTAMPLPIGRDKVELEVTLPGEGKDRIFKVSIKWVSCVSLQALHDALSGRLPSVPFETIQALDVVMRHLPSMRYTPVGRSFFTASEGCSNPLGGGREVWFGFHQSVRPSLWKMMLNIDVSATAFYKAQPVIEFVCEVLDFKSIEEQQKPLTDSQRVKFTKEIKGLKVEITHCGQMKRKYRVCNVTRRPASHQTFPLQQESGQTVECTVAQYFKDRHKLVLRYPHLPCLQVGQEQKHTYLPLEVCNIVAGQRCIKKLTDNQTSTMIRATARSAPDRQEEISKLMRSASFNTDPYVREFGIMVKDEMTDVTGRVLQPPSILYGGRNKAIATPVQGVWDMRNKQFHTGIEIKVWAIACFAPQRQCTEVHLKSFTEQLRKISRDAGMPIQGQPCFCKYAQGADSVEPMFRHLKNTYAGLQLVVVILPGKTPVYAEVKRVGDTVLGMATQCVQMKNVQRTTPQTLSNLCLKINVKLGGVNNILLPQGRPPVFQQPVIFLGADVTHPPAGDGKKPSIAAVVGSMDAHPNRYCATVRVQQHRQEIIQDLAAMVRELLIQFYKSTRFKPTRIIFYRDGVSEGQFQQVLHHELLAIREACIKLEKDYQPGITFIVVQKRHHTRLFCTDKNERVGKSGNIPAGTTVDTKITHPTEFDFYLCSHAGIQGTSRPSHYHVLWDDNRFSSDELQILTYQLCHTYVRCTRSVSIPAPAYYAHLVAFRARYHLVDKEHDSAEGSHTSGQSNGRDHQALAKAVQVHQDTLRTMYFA

Regarding `OC(CNc1ccc(N2CCOCC2)cc1)Cn1c2ccc(Br)cc2c2cc(Br)ccc21` (stereo unspecified), the negative-log Kd (pKd) in [1] is 5.68.

As for `NC[C@H]1O[C@H](O[C@H]2[C@H](O)[C@@H](O[C@H]3O[C@H](CO)[C@@H](O)[C@H](N)[C@H]3O)[C@H](N)C[C@@H]2N)[C@H](N)C[C@@H]1O`, in assay [2], the inhibition was determined as 10%.

Compound `NC[C@H]1O[C@H](O[C@H]2[C@H](O)[C@@H](O[C@H]3O[C@H](CO)[C@@H](O)[C@H](N)[C@H]3O)[C@H](N)C[C@@H]2N)[C@H](O)[C@@H](O)[C@@H]1O` yielded an inhibition in assay [2] of 25%.

Consider `COc1ccccc1CCNC1CC(=O)C(c2ccc(C)cc2)C1=O` (stereo unspecified), for which the negative-log Kd (pKd) in assay [3] was 4.42.

Turning to `COc1cccc2c1C(=O)c1c(O)c3c(c(O)c1C2=O)C[C@@](O)(C(=O)CO)C[C@@H]3O[C@H]1C[C@H](N)[C@@H](O)[C@H](C)O1` [EPIRUBICIN], in assay [4], the pKd was 7.62.

For `COc1ccc(NCC(O)Cn2c3ccc(Br)cc3c3cc(Br)ccc32)cc1` (stereo unspecified), the negative logarithm of the Kd (pKd) in assay [1] is 6.15 and 6.10. For the same compound, the Tm in [5] is -2.3 °C.

In the case of `CCCN(CC(=O)N(CCC)CC(=O)N(CC(=O)NCCCNCCCNC(=O)c1csc(-c2csc(CCNC(=O)[C@@H](NC(=O)[C@@H](C)[C@H](O)[C@@H](C)NC(=O)[C@@H](NC(=O)c3nc([C@H](CC(N)=O)NC[C@H](N)C(N)=O)nc(N)c3C)[C@@H](O[C@@H]3O[C@@H](CO)[C@@H](O)[C@H](O)[C@@H]3O[C@H]3O[C@H](CO)[C@@H](O)[C@H](OC(N)=O)[C@@H]3O)c3c[nH]cn3)[C@@H](C)O)n2)n1)Cc1cn(CCCNC(=O)CCCOc2c(C(C)(C)C)cc(-c3nc4ccc(N5CCN(C)CC5)cc4[nH]3)cc2C(C)(C)C)nn1)C(=O)CCCOc1cccc(-c2nc3ccc(-c4nc5ccc(N6CCN(C)CC6)cc5[nH]4)cc3[nH]2)c1`, in [6], the pKd was 7.19.

`NC[C@@H]1O[C@H](O[C@H]2[C@@H](O)[C@H](O[C@@H]3[C@@H](O)[C@H](N)C[C@H](N)[C@H]3O[C@H]3O[C@H](CN)[C@@H](O)[C@H](O)[C@H]3N)O[C@@H]2n2cc(CCC(=O)NCC(=O)Nc3nc4ccccc4[nH]3)nn2)[C@H](N)[C@@H](O)[C@@H]1O` came in with an inhibition in assay [7] of 20%. Further, the figures for the pIC50 in [8] and in [9] were 4.99 and 5.07, respectively.

As to `OC(CNc1cccc(Cl)c1)Cn1c2ccc(Br)cc2c2cc(Br)ccc21` (stereo unspecified), the negative logarithm of the Kd (pKd) in assay [1] is 5.92 and 6.10.

Take `CCOc1ccc(NCC(O)Cn2c3ccc(Br)cc3c3cc(Br)ccc32)cc1` (stereo unspecified): in assay [1], the negative-log Kd (pKd) is 5.92.

Regarding `O=c1cc(N2CCC(N3CCCC3)CC2)c2ccccc2o1`, the pKd in assay [3] was 4.64.

With `N=C(N)NCc1ccc(Oc2ccccc2)cc1`, the pIC50 against Protein argonaute-2 was less than 3.00.

In turn, `O=C(O)c1ccc2nc3c4c(O)ccc(O)c4c(=O)c(Cl)c-3oc2c1` showed a negative-log IC50 (pIC50) in assay [10] of 5.33.

`CC(=O)c1ccc(C(=O)Nc2ccc3ccccc3c2)cc1`: the Activity in assay [11] is 6.7 RLU.

As for `NC(Cc1cc(O)c(O)cc1O)C(=O)O` (stereo unspecified), in assay [10], the negative-log IC50 (pIC50) was 5.15.

Take `c1ccc(CN(CCN(Cc2ccccn2)Cc2ccccn2)Cc2ccccn2)nc1`: the pIC50 against Protein lin-28 homolog A is 5.60.

For the compound `O=C(Nc1ccc2ccccc2c1)c1ccc([N+](=O)[O-])cc1`, the Activity in [11] came out at 6.2 RLU.

In the case of `CCCCCCNS(=O)(=O)c1ccc2c(c1)CCCN2`, in [11], the Activity stood at 11.9 RLU.

Take `O=[N+]([O-])c1ccc2nc(-c3ccccc3O)nc(-c3ccccc3)c2c1`: the negative logarithm of the EC50 (pEC50) in the assay with BCL1 was 4.70.

In turn, `Cc1ccc(C(=O)Nc2ccc(S(=O)(=O)O)c3cc(S(=O)(=O)O)cc(S(=O)(=O)O)c23)cc1NC(=O)c1cccc(NC(=O)Nc2cccc(C(=O)Nc3cc(C(=O)Nc4ccc(S(=O)(=O)O)c5cc(S(=O)(=O)O)cc(S(=O)(=O)O)c45)ccc3C)c2)c1` [SURAMIN] had a pIC50 at Protein argonaute-2 of 6.16.

Regarding `CC(=O)N(C)c1cccc(-c2ccc3nnc(C)n3n2)c1`, the pIC50 against Protein lin-28 homolog A is 5.10.

As to `CCCOc1ccc(NCC(O)Cn2c3ccc(Br)cc3c3cc(Br)ccc32)cc1` (stereo unspecified), the pKd in [1] was 5.66.

On to `NCCc1cc(O)c(O)cc1O` [OXIDOPAMINE HYDROCHLORIDE], for which, on Protein argonaute-2, the pIC50 is 5.79.

For `O=S(=O)(Nc1ccccc1)c1ccc2c(c1)CCCN2`, the Activity in assay [11] came out at 9.9 RLU.

On to `CCOc1cccc2c1N[C@@H](c1ccc(C(=O)O)cc1)[C@H]1CC=C[C@@H]21`, for which the pIC50 against Protein lin-28 homolog A was 5.15.

In the case of `COc1cccc2c1C(=O)c1c(O)c3c(c(O)c1C2=O)C[C@@](O)(C(=O)CO)C[C@@H]3O[C@H]1C[C@H](N)[C@H](O)[C@H](C)O1` [DOXORUBICIN], the pKd in [4] was 7.24.

Turning to `NC[C@@H]1O[C@H](O[C@H]2[C@@H](O)[C@H](O[C@@H]3[C@@H](O)[C@H](N)C[C@H](N)[C@H]3O[C@H]3O[C@H](CN)[C@@H](O)[C@H](O)[C@H]3N)O[C@@H]2CO)[C@H](N)[C@@H](O)[C@@H]1O` [FRAMYCETIN], the inhibition in [7] stood at 100%; in [2], 25%. For the same compound, the pIC50 in [8] was 3.90; in [9] it was 3.75.

For `C/C(=N\NC(=O)c1ccccn1)c1c(C)[nH]n(-c2ccccc2)c1=O`, the pKd in assay [3] was 3.96.

On Protein lin-28 homolog A, `CC1(C)Oc2cc(N3CCN(C(=O)OCc4ccccc4)CC3)c([N+](=O)[O-])cc2-c2c1cnn2-c1ccc(C(=O)O)cc1` showed a pIC50 of 5.39.

As to `CCCCNC(=O)Nc1ccc2oc(CCc3cn([C@H]4O[C@@H](O[C@@H]5[C@@H](O)[C@H](N)C[C@H](N)[C@H]5O[C@H]5O[C@H](CN)[C@@H](O)[C@H](O)[C@H]5N)[C@H](O)[C@@H]4O[C@H]4O[C@@H](CN)[C@@H](O)[C@H](O)[C@H]4N)nn3)nc2c1`, the inhibition in assay [7] amounted to 20%. The pIC50 in assay [8] was 4.79; in assay [9], 4.68.

`CCCCNC(=O)Nc1cccc(-c2cn(Cc3cn([C@H]4O[C@@H](O[C@@H]5[C@@H](O)[C@H](N)C[C@H](N)[C@H]5O[C@H]5O[C@H](CN)[C@@H](O)[C@H](O)[C@H]5N)[C@H](O)[C@@H]4O[C@H]4O[C@@H](CN)[C@@H](O)[C@H](O)[C@H]4N)nn3)cn2)c1` yielded an inhibition in assay [7] of 20%. Besides, the results for the pIC50 in [8] and in assay [9] were 4.59 and 4.76, respectively.

With `CCCN(CC(=O)N(CCC)CC(=O)N(CC(N)=O)Cc1cn(CCCNC(=O)CCCOc2c(C(C)(C)C)cc(-c3nc4cc(N5CCN(C)CC5)ccc4[nH]3)cc2C(C)(C)C)nn1)C(=O)CCCOc1cccc(-c2nc3ccc(-c4nc5ccc(N6CCN(C)CC6)cc5[nH]4)cc3[nH]2)c1`, the pKd in [6] is 6.70.

As to `CN(C)CCN1C(=O)c2cccc3cccc(c23)C1=O`, in [12], the Activity was determined as 0.18 RLU.

The compound `NC[C@@H]1O[C@H](O[C@H]2[C@@H](O)[C@H](O[C@@H]3[C@@H](O)[C@H](N)C[C@H](N)[C@H]3O[C@H]3O[C@H](CN)[C@@H](O)[C@H](O)[C@H]3N)O[C@@H]2n2cc(Cn3cnc(-c4cccc(NC(=O)c5ccccc5)c4)c3)nn2)[C@H](N)[C@@H](O)[C@@H]1O` returned an inhibition in assay [7] of 20%. Further, the negative logarithm of the IC50 (pIC50) in assay [8] was 5.08; in [9], 5.05.

With `Cc1ccccc1NCC(O)Cn1c2ccc(Br)cc2c2cc(Br)ccc21` (stereo unspecified), in [1], the negative logarithm of the Kd (pKd) was 5.64. Further, the Tm in assay [5] is -5.1 °C.

In turn, `CN[C@@H]1[C@H](O[C@H]2[C@H](O[C@H]3[C@H](O)[C@@H](O)[C@H](N=C(N)N)[C@@H](O)[C@@H]3N=C(N)N)O[C@@H](C)[C@]2(O)C=O)O[C@@H](CO)[C@H](O)[C@H]1O` yielded an inhibition in assay [2] of 25%.

On to `O=[N+]([O-])c1ccc2nc(-c3ccccc3)nc(-c3ccccc3)c2c1`, for which the pEC50 with BCL1 was 4.70.

As for `O=[N+]([O-])c1ccc2nc(-c3ccccc3[N+](=O)[O-])nc(-c3ccccc3)c2c1`, the pEC50 in the assay on BCL1 was 4.70.
